Measurements from ChEMBL document CHEMBL5252638, “Novel triphenylphosphonium amphiphilic conjugates of glycerolipid type: synthesis, cytotoxic and antibacterial activity, and targeted cancer cell delivery” (RSC Med Chem, 2023).
≈ marks a conversion by molar mass, not a printed value.

Experiments:
[1] = system: A549; assay: Cytotoxicity against human A549 cells assessed as number of viable cells measured after 48 hrs by MTT based colorimetric assay; type: functional, cell-based; settings: A549, 48 h
[2] = system: Escherichia coli; assay: Antimicrobial activity against Escherichia coli ATCC 25922 by serial microdilution method; type: functional
[3] = system: HuTu80; assay: Induction of apoptosis in human HuTu80 cells assessed as late apoptotic cells at 5 uM incubated for 48 hrs by annexin V FITC/propidium iodide staining based flow cytometry analysis (reference value: 0.00%); type: functional
[4] = system: SK-OV-3; assay: Cytotoxicity against human SK-OV-3 cells assessed as number of viable cells measured after 48 hrs by MTT based colorimetric assay; type: functional, cell-based; settings: SK-OV-3, 48 h
[5] = system: HuTu80; assay: Cytotoxicity against human HuTu80 cells assessed as number of viable cells measured after 48 hrs by MTT based colorimetric assay; type: functional, cell-based; settings: HuTu80, 48 h
[6] = system: HuTu80; assay: Induction of cell cycle arrest in human HuTu80 cells assessed as accumulation of cell at G1/G0 phase at 5 uM measured after 48 hrs by propidium iodide staining based analysis (reference value: 72%); type: functional
[7] = system: DU-145; assay: Cytotoxicity against human DU-145 cells assessed as number of viable cells measured after 48 hrs by MTT based colorimetric assay; type: functional, cell-based; settings: DU-145, 48 h
[8] = system: HuTu80; assay: Induction of apoptosis in human HuTu80 cells assessed as viable cells at 10 uM incubated for 48 hrs by annexin V FITC/propidium iodide staining based flow cytometry analysis (reference value: 93.71%); type: functional; settings: read-out: Activity
[9] = system: HuTu80; assay: Induction of mitochondrial membrane potential loss in human HuTu80 cells assessed as J-aggregates red fluorescence intensity at 5 uM incubated for 24 hrs by JC10 staining based flow cytometry method (reference value: 94.4%); type: functional
[10] = system: PANC-1; assay: Cytotoxicity against human PANC-1 cells assessed as number of viable cells measured after 48 hrs by MTT based colorimetric assay; type: functional, cell-based; settings: PANC-1, 48 h
[11] = system: HepG2; assay: Cytotoxicity against human HepG2 cells assessed as number of viable cells measured after 48 hrs by MTT based colorimetric assay; type: functional, cell-based; settings: HepG2, 48 h
[12] = system: HuTu80; assay: Induction of apoptosis in human HuTu80 cells assessed as necrotic cells at 5 uM incubated for 48 hrs by annexin V FITC/propidium iodide staining based flow cytometry analysis (reference value: 4.56%); type: functional
[13] = system: HuTu80; assay: Induction of ROS production in human HuTu80 cells assessed as increase in fluorescence intensity at 5 uM measured after 48 hrs by flow cytometry based analysis (reference value: 380); type: functional
[14] = system: Staphylococcus aureus; assay: Bactericidal against Staphylococcus aureus ATCC 6538 P FDA 209P by serial microdilution method; type: functional
[15] = system: HuTu80; assay: Induction of mitochondrial membrane potential loss in human HuTu80 cells assessed as J-monomer green fluorescence intensity at 5 uM incubated for 24 hrs by JC10 staining based flow cytometry method (reference value: 5.7%); type: functional
[16] = system: HuTu80; assay: Induction of apoptosis in human HuTu80 cells assessed as early apoptotic cells at 5 uM incubated for 48 hrs by annexin V FITC/propidium iodide staining based flow cytometry analysis (reference value: 1.74%); type: functional
[17] = system: HuTu80; assay: Induction of ROS production in human HuTu80 cells assessed as increase in fluorescence intensity at 10 uM measured after 48 hrs by flow cytometry based analysis (reference value: 380); type: functional
[18] = system: HuTu80; assay: Induction of cell cycle arrest in human HuTu80 cells assessed as accumulation of cell at S phase at 10 uM measured after 48 hrs by propidium iodide staining based analysis (reference value: 8.1%); type: functional
[19] = organism: Homo sapiens; assay: Selectivity index, ratio of IC50 for human Chang liver cells to IC50 for human HelaM cells
[20] = system: HuTu80; assay: Induction of cell cycle arrest in human HuTu80 cells assessed as accumulation of cell at G1/G0 phase at 10 uM measured after 48 hrs by propidium iodide staining based analysis (reference value: 72%); type: functional
[21] = organism: Homo sapiens; assay: Selectivity index, ratio of IC50 for human Chang liver cells to IC50 for human HuTu80 cells
[22] = system: HuTu80; assay: Induction of apoptosis in human HuTu80 cells assessed as early apoptotic cells at 10 uM incubated for 48 hrs by annexin V FITC/propidium iodide staining based flow cytometry analysis (reference value: 1.74%); type: functional
[23] = organism: Homo sapiens; assay: Selectivity index, ratio of IC50 for human Chang liver cells to IC50 for human SK-OV-3 cells
[24] = system: MCF7; assay: Cytotoxicity against human MCF7 cells assessed as number of viable cells measured after 48 hrs by MTT based colorimetric assay; type: functional, cell-based; settings: MCF7, 48 h
[25] = system: PC-3; assay: Cytotoxicity against human PC-3 cells assessed as number of viable cells measured after 48 hrs by MTT based colorimetric assay; type: functional, cell-based; settings: PC-3, 48 h
[26] = system: Enterococcus faecalis; assay: Antimicrobial activity against Enterococcus faecalis ATCC 29212 by serial microdilution method; type: functional
[27] = Cytotoxicity against human WI-38 cells assessed as number of viable cells measured after 48 hrs by MTT based colorimetric assay; type: toxicity, cell-based
[28] = system: Staphylococcus aureus; assay: Antimicrobial activity against Staphylococcus aureus ATCC 6538 P FDA 209P by serial microdilution method; type: functional
[29] = system: Bacillus cereus; assay: Antimicrobial activity against Bacillus cereus ATCC 10702 NCTC 8035 by serial microdilution method; type: functional
[30] = organism: Homo sapiens; assay: Selectivity index, ratio of IC50 for human Chang liver cells to IC50 for human MCF7 cells
[31] = system: HuTu80; assay: Induction of cell cycle arrest in human HuTu80 cells assessed as accumulation of cell at G2/M phase at 10 uM measured after 48 hrs by propidium iodide staining based analysis (reference value: 18.7%); type: functional
[32] = Cytotoxicity against human Chang liver cells assessed as number of viable cells measured after 48 hrs by MTT based colorimetric assay; type: toxicity, cell-based
[33] = system: T98G; assay: Cytotoxicity against human T98G cells assessed as number of viable cells measured after 48 hrs by MTT based colorimetric assay; type: functional, cell-based
[34] = system: HuTu80; assay: Induction of apoptosis in human HuTu80 cells assessed as late apoptotic cells at 10 uM incubated for 48 hrs by annexin V FITC/propidium iodide staining based flow cytometry analysis (reference value: 0.00%); type: functional
[35] = system: Escherichia coli; assay: Bactericidal activity against Escherichia coli ATCC 25922 by serial microdilution method; type: functional
[36] = system: HuTu80; assay: Induction of mitochondrial membrane potential loss in human HuTu80 cells assessed as J-monomer green fluorescence intensity at 10 uM incubated for 24 hrs by JC10 staining based flow cytometry method (reference value: 5.7%); type: functional
[37] = system: HuTu80; assay: Induction of apoptosis in human HuTu80 cells assessed as necrotic cells at 10 uM incubated for 48 hrs by annexin V FITC/propidium iodide staining based flow cytometry analysis (reference value: 4.56%); type: functional
[38] = system: HuTu80; assay: Induction of cell cycle arrest in human HuTu80 cells assessed as accumulation of cell at S phase at 5 uM measured after 48 hrs by propidium iodide staining based analysis (reference value: 8.1%); type: functional
[39] = organism: Homo sapiens; assay: Selectivity index, ratio of IC50 for human Chang liver cells to IC50 for human DU-145 cells
[40] = system: M-HeLa; assay: Cytotoxicity against human HelaM cells assessed as number of viable cells measured after 48 hrs by MTT based colorimetric assay; type: functional, cell-based
[41] = system: HuTu80; assay: Induction of cell cycle arrest in human HuTu80 cells assessed as accumulation of cell at G2/M phase at 5 uM measured after 48 hrs by propidium iodide staining based analysis (reference value: 18.7%); type: functional
[42] = system: Enterococcus faecalis; assay: Bactericidal activity against Enterococcus faecalis ATCC 29212 by serial microdilution method; type: functional
[43] = system: HuTu80; assay: Induction of apoptosis in human HuTu80 cells assessed as viable cells at 5 uM incubated for 48 hrs by annexin V FITC/propidium iodide staining based flow cytometry analysis (reference value: 93.71%); type: functional; settings: read-out: Activity
[44] = system: HuTu80; assay: Induction of mitochondrial membrane potential loss in human HuTu80 cells assessed as J-aggregates red fluorescence intensity at 10 uM incubated for 24 hrs by JC10 staining based flow cytometry method (reference value: 94.4%); type: functional
[45] = system: Pseudomonas aeruginosa; assay: Antimicrobial activity against Pseudomonas aeruginosa ATCC 9027 by serial microdilution method; type: functional
[46] = system: Pseudomonas aeruginosa; assay: Bactericidal against Pseudomonas aeruginosa ATCC 9027 by serial microdilution method; type: functional
[47] = system: Bacillus cereus; assay: Bactericidal activity against Bacillus cereus ATCC 10702 NCTC 8035 by serial microdilution method; type: functional

CCCCC/C=C\C/C=C\CCCCCCCC(=O)OCC(O)COC(=O)CCCC[P+](c1ccccc1)(c1ccccc1)c1ccccc1.[Br-] (centres undefined)
IC50 [1]: 62.5 µM
MIC [2]: 20 µM
Activity [3]: 13.1%
IC50 [4]: 39.4 µM
IC50 [5]: 9.5 µM
Activity [6]: 81%
IC50 [7]: 49.1 µM
viability at 10 µM [8]: 56.2%
Activity [9]: 73.9%
IC50 [10]: 59 µM
IC50 [11]: 76 µM
Activity [12]: 10.7%
Flu intensity [13]: 1000
MBC [14]: 5 µM
Activity [15]: 26.1%
Activity [16]: 3.99%
Flu intensity [17]: 1700
Activity [18]: 5.4%
Ratio IC50 [19]: 1.1
Activity [20]: 82%
Ratio IC50 [21]: 6.6
Activity [22]: 5.67%
Ratio IC50 [23]: 1.6
IC50 [24]: 37.7 µM
IC50 [25]: 63.9 µM
MIC [26]: 20 µM
IC50 at 48 h [27]: 56.6 µM
MIC [28]: 5 µM
MIC [29]: 20 µM
Ratio IC50 [30]: 1.7
Activity [31]: 9.3%
IC50 at 48 h [32]: 63 µM
IC50 [33]: 98 µM
Activity [34]: 19.59%
MBC [35]: 80 µM
Activity [36]: 38.1%
Activity [37]: 18.56%
Activity [38]: 5.7%
Ratio IC50 [39]: 1.3
IC50 [40]: 55.6 µM
Activity [41]: 11%
MBC [42]: 80 µM
viability at 5 µM [43]: 72.2%
Activity [44]: 61.9%

CCn1cc(C(=O)O)c(=O)c2cc(F)c(N3CCNCC3)cc21 [NORFLOXACIN]
MIC [2]: 4.7 µM (≈ 1.5 µg/mL)
MIC [45]: 12.1 µM (≈ 3.86 µg/mL)
MBC [14]: 7.5 µM (≈ 2.4 µg/mL)
MIC [26]: 24.4 µM (≈ 7.79 µg/mL)
MBC [46]: 49 µM (≈ 15.6 µg/mL)
MIC [28]: 7.5 µM (≈ 2.4 µg/mL)
MIC [29]: 24.4 µM (≈ 7.79 µg/mL)
MBC [47]: 24.4 µM (≈ 7.79 µg/mL)
MBC [35]: 24.4 µM (≈ 7.79 µg/mL)
MBC [42]: 24.4 µM (≈ 7.79 µg/mL)
